What was measured:
Experiment in all cases: relative viability (nuclei count vs DMSO), 5 days (fraction); higher = more cells survive
Shikonin + OSI-027 = compound: CC(C)=CC[C@@H](O)C1=CC(=O)c2c(O)ccc(O)c2C1=O [Shikonin] + COc1cccc2cc(-c3nc([C@H]4CC[C@H](C(=O)O)CC4)n4ncnc(N)c34)[nH]c12 [OSI-027] (partner 0.5 µM)
Method in brief: (§1)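 Medians of duplicate plates are given as relative viability. That measure is the nuclei count in treated wells divided by the count in vehicle wells. Counts were taken on 4× images of lung cancer cell lines in 1536-well plates, 5 days after pin-tool dosing the day after seeding with one drug alone or a fixed anchor-drug dose plus five library-drug doses (not always all listed) in √10 steps.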

Shikonin + Tozasertib = compound: CC(C)=CC[C@@H](O)C1=CC(=O)c2c(O)ccc(O)c2C1=O [Shikonin] + Cc1cc(Nc2cc(N3CCN(C)CC3)nc(Sc3ccc(NC(=O)C4CC4)cc3)n2)n[nH]1 [Tozasertib] (partner 0.1 µM)
Method in brief: as §1

Shikonin + AZD7762 = compound: CC(C)=CC[C@@H](O)C1=CC(=O)c2c(O)ccc(O)c2C1=O [Shikonin] + NC(=O)Nc1cc(-c2cccc(F)c2)sc1C(=O)N[C@H]1CCCNC1 [AZD7762] (partner 0.2 µM)
Method in brief: as §1

[1] = compound: CC(C)N(CCCNC(=O)Nc1ccc(C(C)(C)C)cc1)C[C@H]1O[C@@H](n2ccc3c(N)ncnc32)[C@H](O)[C@@H]1O + Cc1nc(NC(=O)N2CCC[C@H]2C(N)=O)sc1-c1ccnc(C(C)(C)C(F)(F)F)c1 [Alpelisib] (partner 2 µM)
Method in brief: as §1

Cell Line	relative viability (Shikonin + OSI-027; first compound 0.01 µM)	relative viability (Shikonin + OSI-027; first compound 0.1 µM)	relative viability (Shikonin + OSI-027; first compound 0.3162 µM)	relative viability (Shikonin + OSI-027; first compound 1 µM)	relative viability (Shikonin + Tozasertib; first compound 0.01 µM)	relative viability (Shikonin + Tozasertib; first compound 0.1 µM)	relative viability (Shikonin + Tozasertib; first compound 0.3162 µM)	relative viability (Shikonin + Tozasertib; first compound 1 µM)	relative viability (Shikonin + AZD7762; first compound 0.01 µM)	relative viability (Shikonin + AZD7762; first compound 0.1 µM)	relative viability (Shikonin + AZD7762; first compound 0.3162 µM)	relative viability (Shikonin + AZD7762; first compound 1 µM)	relative viability ([1]; first compound 0.08 µM)	relative viability ([1]; first compound 0.253 µM)	relative viability ([1]; first compound 0.8 µM)	relative viability ([1]; first compound 2.53 µM)	relative viability ([1]; first compound 8 µM)
H3255	0.591	0.596	0.622	0.475	0.804	0.535	0.64	0.797	0.909	0.977	0.943	0.911	0.93	0.711	0.662	0.714	0.665
NCI-H1734	0.661	0.713	0.624	0.53	0.288	0.284	0.302	0.161	0.557	0.552	0.595	0.55	0.665	0.665	0.636	0.723	0.713
HOP-62	0.967	1.06	1.03	0.826	0.369	0.407	0.369	0.38	0.949	0.648	0.584	0.646	0.997	1.16	0.912	0.971	0.909
LOU-NH91	0.718	0.813	0.786	0.726	0.685	0.711	0.613	0.683	0.839	0.864	0.816	0.84	0.631	0.679	–	0.753	0.663
NCI-H23	0.623	0.661	0.62	0.521	0.363	0.335	0.658	0.413	0.223	0.27	0.268	0.231	0.687	–	0.695	0.684	0.668
RERF-LC-KJ	0.513	0.534	0.632	0.644	0.55	0.44	0.499	0.388	1.04	0.788	1.26	1.02	0.826	0.757	0.868	0.838	0.815
NCI-H1437	0.936	0.833	0.849	0.952	0.417	0.43	0.405	0.455	1.12	1.1	1.15	1.11	0.9	1.01	1.1	0.903	0.945
NCI-H596	0.584	0.968	0.754	0.679	0.79	0.83	0.914	0.732	1.06	1.14	1.09	1.09	0.567	0.42	0.54	0.434	0.482
NCI-H1666	0.936	0.833	0.862	0.966	0.622	0.636	0.665	0.522	0.776	0.9	1	0.887	0.888	0.825	0.895	0.943	1.02
